Experimental data published in ChEMBL document CHEMBL4715826, “Selective PPARδ Modulators Improve Mitochondrial Function: Potential Treatment for Duchenne Muscular Dystrophy (DMD)” (ACS Med Chem Lett, 2018).

Columns and labels:
[1] = Half life in CD-1 mouse at 3 mg/kg, iv; assay type: ADME, organism-based; conditions: in vivo
[2] = target: T1, Peroxisome proliferator-activated receptor alpha (Homo sapiens, UniProt Q07869); assay: Modulator activity at GAL4-fused human PPARalpha LBD (unknown origin) transfected in African green monkey CV1 cells assessed as receptor transactivation by luciferase reporter gene assay; assay type: cell-based, CV-1
T1 sequence (Q07869 whole entry): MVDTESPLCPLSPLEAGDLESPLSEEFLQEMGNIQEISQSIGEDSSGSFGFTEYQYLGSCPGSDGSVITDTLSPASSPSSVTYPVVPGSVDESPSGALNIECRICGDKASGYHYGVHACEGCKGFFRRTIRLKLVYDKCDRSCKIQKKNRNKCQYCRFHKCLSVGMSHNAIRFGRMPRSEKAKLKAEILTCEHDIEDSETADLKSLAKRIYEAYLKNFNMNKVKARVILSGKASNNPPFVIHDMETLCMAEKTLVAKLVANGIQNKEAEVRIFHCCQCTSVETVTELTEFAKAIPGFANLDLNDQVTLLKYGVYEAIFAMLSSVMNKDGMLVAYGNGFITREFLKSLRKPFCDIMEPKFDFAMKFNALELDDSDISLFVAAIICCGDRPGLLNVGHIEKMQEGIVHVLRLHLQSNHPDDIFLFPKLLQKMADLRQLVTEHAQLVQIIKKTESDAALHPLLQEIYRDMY

[3] = target: T2, Peroxisome proliferator-activated receptor gamma (Homo sapiens, UniProt P37231); assay: Modulator activity at GAL4-fused human PPARgamma LBD (unknown origin) transfected in African green monkey CV1 cells assessed as receptor transactivation by luciferase reporter gene assay; assay type: cell-based, CV-1
T2 sequence (P37231 whole entry): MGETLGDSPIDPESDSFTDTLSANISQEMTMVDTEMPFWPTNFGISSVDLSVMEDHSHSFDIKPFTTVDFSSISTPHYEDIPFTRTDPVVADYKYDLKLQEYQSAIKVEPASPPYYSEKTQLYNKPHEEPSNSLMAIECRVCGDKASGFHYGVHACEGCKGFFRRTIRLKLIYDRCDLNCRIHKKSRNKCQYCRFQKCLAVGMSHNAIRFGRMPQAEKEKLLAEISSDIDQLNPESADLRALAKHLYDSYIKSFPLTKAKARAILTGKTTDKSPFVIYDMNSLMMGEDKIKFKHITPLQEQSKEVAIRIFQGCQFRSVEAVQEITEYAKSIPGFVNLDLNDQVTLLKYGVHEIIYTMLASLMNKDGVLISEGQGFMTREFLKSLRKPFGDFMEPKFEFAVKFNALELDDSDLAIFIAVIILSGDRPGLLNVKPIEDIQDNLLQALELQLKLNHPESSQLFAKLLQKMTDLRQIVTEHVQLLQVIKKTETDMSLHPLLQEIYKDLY

[4] = AUC in CD-1 mouse at 3 mg/kg, iv; assay type: ADME, organism-based; design: dose 3 mg/kg; conditions: in vivo
[5] = target: T3, Peroxisome proliferator-activated receptor delta (Homo sapiens, UniProt Q03181)
T3 sequence (Q03181 whole entry): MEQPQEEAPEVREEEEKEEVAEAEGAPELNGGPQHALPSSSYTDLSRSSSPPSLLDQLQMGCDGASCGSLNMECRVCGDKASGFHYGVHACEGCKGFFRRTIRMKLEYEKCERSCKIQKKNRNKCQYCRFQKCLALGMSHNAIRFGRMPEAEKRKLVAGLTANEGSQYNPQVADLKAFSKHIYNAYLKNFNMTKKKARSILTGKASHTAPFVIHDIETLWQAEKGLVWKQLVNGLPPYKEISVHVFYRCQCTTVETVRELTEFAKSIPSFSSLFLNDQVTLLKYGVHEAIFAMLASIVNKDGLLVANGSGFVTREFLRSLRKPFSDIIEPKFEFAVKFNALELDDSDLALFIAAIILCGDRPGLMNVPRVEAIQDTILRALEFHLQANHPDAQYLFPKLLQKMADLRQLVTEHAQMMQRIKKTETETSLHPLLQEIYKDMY
Description: Modulator activity at GAL4-fused human PPARdelta LBD (128 to residue at C-terminus) transfected in African green monkey CV1 cells assessed as receptor transactivation by luciferase reporter gene assay

[6] = Clearance in CD-1 mouse at 3 mg/kg, iv; assay type: ADME, organism-based; conditions: in vivo
[7] = AUC in CD-1 mouse at 1 mg/kg, iv; assay type: ADME, organism-based; design: dose 1 mg/kg; conditions: in vivo
[8] = Half life in CD-1 mouse at 1 mg/kg, iv; assay type: ADME, organism-based; conditions: in vivo
[9] = Selectivity index, ratio of EC50 for transactivation of GAL4-fused PPARalpha LBD (unknown origin) transfected in CV1 cells to EC50 for transactivation of GAL4-fused human PPARdelta LBD (128 to residue at C-terminus) transfected in African green monkey CV1 cells by luciferase reporter gene assay

Row | SMILES | half-life [1] [min] | EC50 [2] [µM] | EC50 [3] [µM] | AUC [4] [ng·h/mL] | EC50 [5] [µM] | clearance [6] [mL/min/kg] | AUC [7] [ng·h/mL] | half-life [8] [min] | Ratio EC50 [9]
1 | Cc1ccc(-c2ncc(C)n2Cc2ccccc2OCCC[C@@H](C)CC(=O)O)cc1 | – | 78.5 | > 10 | – | 0.02 | – | – | – | –
2 | Cc1cnc(-c2ccc(Cl)c(F)c2)n1Cc1ccccc1OCCC[C@@H](C)CC(=O)O | – | 69 | > 10 | – | – | – | 440 | 258 | –
3 | C/C(=C\COc1ccccc1Cc1c(C)ncn1-c1ccc(-c2ccco2)cc1)CCC(=O)O | 42 | – | > 10 | 70 | 0.059 | 720 | – | – | >1000
4 | C/C(=C\COc1ccccc1Cn1c(C)cnc1-c1ccc(-c2ccco2)cc1)CCC(=O)O | 30 | 1.23 | > 10 | 300 | – | 160 | – | – | >1000
5 | C/C(=C\COc1ccccc1Cc1c(-c2ccc(-c3ccco3)cc2)ncn1C)CCC(=O)O | 48 | 0.412 | > 10 | 170 | 0.0013 | 300 | – | – | >1000

Now from value to compound, other results behind:

Row | half-life [1] [min] | EC50 [2] [µM] | EC50 [3] [µM] | AUC [4] [ng·h/mL] | EC50 [5] [µM] | clearance [6] [mL/min/kg] | AUC [7] [ng·h/mL] | half-life [8] [min] | SMILES | Ratio EC50 [9]
6 | 18 | 6.97 | > 10 | 180 | 0.0007 | – | – | – | Cc1cnc(-c2ccc(-c3ccco3)cc2)n1Cc1ccccc1OCCCCCC(=O)O | –
7 | – | > 100 | > 10 | – | – | – | – | – | Cc1cnc(-c2ccc(F)cc2)n1Cc1ccccc1OCCC[C@@H](C)CC(=O)O | –
8 | 144 | – | > 10 | 400 | – | 120 | – | – | Cc1cnc(-c2ccc(-c3ccco3)cc2)n1Cc1ccccc1OCCCCC(C)(C)C(=O)O | –
9 | 186 | 2.29 | > 10 | – | 0.0003 | 70 | 240 | – | C/C(=C\COc1ccccc1Cn1c(C)cnc1-c1ccc(OC(F)(F)F)cc1)CCC(=O)O | –
